The values below come from patent US11401279B2, “Pyrido[3,2-d]pyrimidine compounds as immunomodulators” (Incyte Corporation, priority 2019, dated 2022).

Read-outs that look alike come from different tables or passages of the source.

One data set concerns the target PD-L1 (Homo sapiens (Human), UniProt Q9NZQ7). The data set can be described thus: PD-L1 whole blood internalization assay. Format: cell-based. The settings on record: PD-L1 internalization in human whole blood, CD14+ cells, interferon γ, 24 hour.
In data set [1] the test system is PD-L1 aAPC/CHO-K1 cells and Jurkat-PD-1-NFAT effector cells. Description: Nuclear factor of activated T-cells (NFAT) assay. It is filed as cell-based. Particulars: luminescence, 24 hours. The method, boiled down: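 PD-L1 aAPC/CHO-K1 cells (8000/well) co-cultured with Jurkat-PD-1-NFAT effector cells (10,000/well) plus compound in RPMI/1% FBS, 0.4% DMSO, top concentration 2 μM, 24 h at 37 °C. NFAT luciferase read by Bio-Glo luminescence. Fold induction normalized to DMSO; maximum induction relative to control compound; EC50 from curve fit.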

Data set [2] is described as follows: In vivo pharmacokinetics in rats. Details: species or system Sprague Dawley rats. Particulars: rat, cassette dosing; for Vd: read-out: Vss; for Cmax / AUC(0-inf) / F: 3.0 mg/kg PO. The protocol: For in vivo pharmacokinetic experiments, test compounds were administered to male Sprague Dawley rats or male and female Cynomolgus monkeys intravenously or via oral gavage. For intravenous (IV) dosing, test compounds were dosed at 0.5 to 1 mg/kg using a formulation of 10% dimethylacetamide (DMAC) in acidified saline via IV bolus for rat and 5 min or 10 min IV infusion for monkey. For oral (PO) dosing, test compounds were dosed at 1.0 to 3.0 mg/kg using 5% DMAC in 0.5% methylcellulose in citrate buffer (pH 3.5). Blood samples were collected at predose and various time points up to 24 hours postdose. All blood samples were collected using EDTA as the anticoagulant and centrifuged to obtain plasma samples. The plasma concentrations of test compounds were determined by LC-MS methods. The measured plasma concentrations were used to calculate PK parameters by standard noncompartmental methods using Phoenix® WinNonlin software program (version 7.0, Pharsight Corporation).
In rats and monkeys, cassette dosing of test compounds were conducted to obtain preliminary PK parameters.

The next data set addresses PD-1/PD-L1 (Homo sapiens (Human), UniProt Q9NZQ7). Description: Homogeneous Time-Resolved Fluorescence (HTRF) PD-1/PD-L1 binding assay. The settings on record: recombinant human PD-1 and PD-L1. The method, boiled down:
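Human PD-1 (25-167, Fc-tagged; 3 nM) and PD-L1 (19-238, His-tagged; 10 nM) were preincubated 40 min with inhibitors in PBS pH 7.4, 0.05% Tween-20, 0.1% BSA, 1% DMSO, at 25 °C. Eu-anti-human IgG (1 nM) and anti-His-APC (20 nM) were added for 60 min. The 665/620 nm HTRF ratio gave IC50 by curve fitting.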
(TR-FRET usually uses a lanthanide donor and a delayed reading to cut background.)

Data set [3] deals with U2OS/PD-L1 cells and Jurkat-PD-1-SHP cells. The data set can be described thus: Src homology region 2 domain-containing phosphatase (SHP) assay. Format: cell-based. Particulars: PathHunter chemiluminescence, 2 hours. The method, boiled down:
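U2OS/PD-L1 cells and Jurkat-PD-1-SHP cells, 5000 each, were co-incubated with compound for 2 h at 37 °C in RPMI with 1% FBS. PathHunter enzyme-fragment complementation chemiluminescence reported PD-1/SHP recruitment. IC50 was fitted from percent of DMSO-control activity versus log concentration.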

Setting [4] is: male, Sprague-Dawley, plasma, 1.0 mg/kg IV.
[5] abbreviates: male, Sprague-Dawley, plasma, read-out: AUC0-inf.

Chain of PD-L1 (Q9NZQ7 19-290): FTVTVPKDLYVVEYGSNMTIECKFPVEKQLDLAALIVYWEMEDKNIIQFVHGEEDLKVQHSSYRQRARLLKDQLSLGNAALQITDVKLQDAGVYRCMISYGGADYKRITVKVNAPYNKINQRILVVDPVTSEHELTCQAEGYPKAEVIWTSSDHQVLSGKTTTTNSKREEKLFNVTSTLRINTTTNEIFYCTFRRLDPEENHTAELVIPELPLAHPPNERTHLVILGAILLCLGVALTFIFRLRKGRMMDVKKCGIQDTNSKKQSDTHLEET
Chain of PD-1/PD-L1 (Q9NZQ7 19-238): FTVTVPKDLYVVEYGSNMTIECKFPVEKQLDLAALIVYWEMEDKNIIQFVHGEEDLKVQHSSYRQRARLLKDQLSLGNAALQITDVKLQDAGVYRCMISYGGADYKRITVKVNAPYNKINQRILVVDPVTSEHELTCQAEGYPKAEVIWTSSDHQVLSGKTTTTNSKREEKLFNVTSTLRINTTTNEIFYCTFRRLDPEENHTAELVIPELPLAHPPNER

Regarding `CN1CCc2c(nc(C(=O)Nc3cccc(-c4cccc(NC(=O)c5nc6c(n5C)CCN(CC57CCC(C(=O)O)(CC5)C7)C6)c4Cl)c3Cl)n2C)C1` [Example 84], the IC50 (usually the concentration that inhibits the measured activity by half) against PD-L1 came to 97 nM. Moreover, it took 47 nM to reach a half-maximal effect in data set [1] (Cricetulus griseus, CHO-K1) (EC50). In data set [2] (setting [4]), the clearance (in general, a measure of how efficiently the substance is removed, as volume per time) is 16.5 mL/min/kg; the half-life (commonly how long it takes for the measured level to halve) is 3.47 h; the Vd was found to be 2.45 L/kg. For the same compound, the concentration in data set [2] (male, Sprague-Dawley, plasma) peaked (Cmax) at 234 nM. In addition, the AUC(0-inf) in data set [2] (setting [5]) stood at 1.2 µM·h. For the same compound, the F in data set [2] is 28%. For the same compound, on PD-1/PD-L1, the IC50 came to 8.3 nM. The compound also yielded an IC50 in data set [3] (Homo sapiens, U2OS) of 6.9 nM.

In the case of `Cc1c(-c2nc3cc(CN4CC[C@@H](O)C4)cc(C#N)c3o2)cccc1-c1cccc(NC(=O)c2nc3c(n2C)CCN(CCC2CCC(C(=O)O)CC2)C3)c1Cl` (stereo partly drawn) [Example 265], the IC50 on PD-L1 was 62 nM; on PD-1/PD-L1, 2.3 nM; in data set [3] (Homo sapiens, U2OS), 4.9 nM. The EC50 (commonly the concentration giving half of the maximal effect) in data set [1] (Cricetulus griseus, CHO-K1) was 15 nM. In data set [2] (setting [4]), the clearance was 63.7 mL/min/kg. In addition, the Vd in data set [2] (setting [4]) turned out to be 4.45 L/kg. Besides, the Cmax (commonly the peak of the concentration-time curve) in data set [2] (male, Sprague-Dawley, plasma) worked out at 57 nM. In data set [2] (setting [5]), the AUC(0-inf) stood at 0.398 µM·h. Besides, the F in data set [2] is on record as 8%.

As to `Cn1c(C(=O)Nc2cccc(-c3cccc(NC(=O)c4nc5c(n4C)CCN(CC46CCC(C(=O)O)(CC4)C6)C5)c3Cl)c2Cl)nc2c1CCN(CCO)C2` [Example 180], the IC50 at PD-L1 stood at 166 nM. Also, in data set [1], the EC50 came out at 30 nM. In data set [2] (1.0 mg/kg IV), the Cl turned out to be 26.2 mL/min/kg; the Vss (as a rule, the apparent volume that relates the amount in the body to the concentration in plasma or blood) was determined as 2.48 L/kg; the t1/2 stood at 2.21 h. In data set [2], this compound came in with an AUC(0-inf) of 0.956 µM·h, a Cmax of 231 nM and an F of 38%. Further, at PD-1/PD-L1, the IC50 turned out to be 1.5 nM. Further, half-maximal inhibition in data set [3] (IC50) required 4.4 nM.

In turn, `Cc1c(NC(=O)c2nc3c(n2C)CCN(CC24CCC(C(=O)O)(CC2)C4)C3)cccc1-c1cccc(NC(=O)c2nc3c(n2C)CCN(C)C3)c1Cl` [Example 102] gave an IC50 at PD-L1 of 149 nM. Moreover, in data set [1] (Cricetulus griseus, CHO-K1), a half-maximal effect (EC50) was put at 76 nM. Moreover, in data set [2] (setting [4]), the clearance was 19 mL/min/kg, the half-life is 1.9 h and the Vd was 1.96 L/kg. Further, in data set [2] (male, Sprague-Dawley, plasma), the peak level (Cmax) was 398 nM. Also, in data set [2] (setting [5]), the AUC(0-inf) turned out to be 1.5 µM·h. In data set [2], this compound registered an F of 39%. For the same compound, at PD-1/PD-L1, the IC50 came to 2.4 nM. The compound also yielded an IC50 in data set [3] (Homo sapiens, U2OS) of 4.9 nM.
